Assay results published in patent US10689383B2, “Optionally fused heterocyclyl-substituted derivatives of pyrimidine useful for the treatment of inflammatory, metabolic, oncologic and autoimmune diseases” (NUEVOLUTION A/S, priority 2014, dated 2020).
pIC50: −log10 of the molar value.

What was measured:
[1] = target: T1, human RORγt (Ligand Binding Domain) (Homo sapiens, UniProt P51449); experiment: Fluorescence Polarization (FP) Assay; conditions: Fluorescence Polarization (FP) Assay; values given as upper bounds of activity ranges; read-out: FP activity range
T1 construct: purchased Crelux (Planegg, Germany) batch no PC5032-1
T1 sequence (P51449 269-508 limits assumed): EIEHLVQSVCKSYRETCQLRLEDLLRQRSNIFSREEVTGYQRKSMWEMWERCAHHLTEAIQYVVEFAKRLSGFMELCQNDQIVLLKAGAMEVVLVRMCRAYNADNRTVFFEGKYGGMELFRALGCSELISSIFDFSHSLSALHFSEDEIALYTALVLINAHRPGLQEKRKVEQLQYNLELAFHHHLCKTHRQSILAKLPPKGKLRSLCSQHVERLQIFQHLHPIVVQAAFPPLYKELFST
Outline: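 In vitro FP binding assay monitoring ligand binding within the ligand binding pocket. Probe is a TAMRA-labelled RORγt ligand (MW 910 g/mole); DMSO served as negative control.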

[2] = target: T2, yeast Gal4-DNA binding domain fused to the ligand binding domain of human RORγ (Homo sapiens, UniProt P51449); experiment: RORγ Reporter Assay (Gal4); format: cell-based; conditions: values given as lower bounds of ranges; for Gal4 activity range @ 1 μM (% inhibition): RORγ Reporter Assay (Gal4) at 1 μM; for Gal4 activity range @ 0.1 μM (% inhibition): RORγ Reporter Assay (Gal4) at 0.1 μM
T2 construct: host or cells: HEK293t
T2 sequence (P51449 269-508 limits assumed): T1 sequence (P51449 269-508 limits assumed)
Method: The activity of the compounds was evaluated using a Fluorescence Polarization (FP) Assay and, in most cases, a Th17 Assay and/or RORγ Reporter assay (also referred to as Gal4 assay). The FP assay is an in vitro assay monitoring binding within the ligand binding pocket. The RORγ and the Th17 assays are both cell-based assays monitoring functional activity of the compound assayed.
Cell-based RORγ functional assays were performed using a commercially available assay product (INDIGO Biosciences, State College, Pa., USA; product # IB04001). The RORγ reporter cells are HEK293t cells transfected with one vector that provides high level constitutive expression of a hybrid protein comprised of the yeast Gal4-DNA binding domain fused to the ligand binding domain of human RORγ, and a second vector comprising the firefly luciferase cDNA functionally linked to the upstream activation sequence (UAS) of yeast Gal4. A suspension of RORγ Reporter Cells was prepared using the protocol and culture medium provided in the kit product, and 100 μl of the Reporter Cell suspension was then dispensed into wells of a white, collagen-treated, 96-well assay plate. Concentrated stocks of test compounds were prepared in DMSO, then further diluted using media provided in the kit to generate ‘2×-concentration’ treatment media. 100 μl of medium for each respective treatment concentration dispensed into triplicate assay wells, thereby combining with the reporter cells. All media formulations contained 10% charcoal stripped Fetal Bovine Serum, but are otherwise proprietary to INDIGO Biosciences. Final treatment concentrations for each test compound were 1,000 nM and 100 nM, each with 0.1% residual DMSO. Separate control treatments were media supplemented with vehicle only (0.1% DMSO) to determine the constitutive level of RORγ activity in the reporter cells, and the reference inverse-agonist ursolic acid (f.c. 6,000 nM to 8.2 nM in 3-fold decrements) to establish a positive control inverse-agonist dose response. Assay plates were placed in a 37° C., 5% CO2, 85% humidity incubator for 24 hour. Treatment media were then discarded, 100 μl of luciferase detection reagent was added to each well, and relative light units (RLUs) were quantified from each assay well using a plate reading luminometer. Values of average RLU+/−standard deviation were computed for all treatment sets, followed by the calculations of fold-reduction: [Average RLUVehicle/Average RLUTest Cmpd]. Percent-reduction of RORγ activity in response to respective test compound treatments was calculated: [100*(1−[Ave RLUTest Cmpd/Ave RLUVehicle)] where the theoretical minimum reduction (0% reduction) derives from Vehicle treatment only, no treatment compound.

Row | SMILES | pIC50 [1] | Gal4 activity range @ 1 μM (% inhibition) [2] | Gal4 activity range @ 0.1 μM (% inhibition) [2]
1 | COc1cc(C(F)(F)F)ccc1C1CCCN1c1ncnc(N[C@H](CC(C)(C)C)C(N)=O)c1F (stereo partly drawn) [Example 65, (2R)-2-[[5-fluoro-6-[2-[2-methoxy-4-(trifluoromethyl)phenyl]pyrrolidin-1-yl]pyrimidin-4-yl]amino]-4,4-dimethyl-pentanamide] | > 6.30 | >20 % inhibition | 
2 | Cc1ccc(CNc2nccc(N3CCCC3c3ccc(C(F)(F)F)cc3)c2F)cn1 (stereo not shown) [Example 66, 3-fluoro-N-[(6-methyl-3-pyridyl)methyl]-4-[2-[4-(trifluoromethyl)phenyl]pyrrolidin-1-yl]pyridin-2-amine] | > 5.70 | >50 % inhibition | 
3 | CC(C)(C)C[C@@H](Nc1ncnc(N2CCOCC2c2ccc(OC(F)(F)F)cc2)c1F)C(N)=O (stereo partly drawn) [Example 68, (2R)-2-[[5-fluoro-6-[3-[4-(trifluoromethoxy)phenyl]morpholin-4-yl]pyrimidin-4-yl]amino]-4,4-dimethyl-pentanamide] | > 5.70 | >80 % inhibition | 
4 | COc1ccc(Cn2ccc3c(N4CCCC4c4ccc(C(F)(F)F)cc4)ncnc32)cc1OC (stereo not shown) [Example 69, 7-[(3,4-dimethoxyphenyl)methyl]-4-[2-[4-(trifluoromethyl)phenyl]pyrrolidin-1-yl]pyrrolo[2,3-d]pyrimidine] | > 6.00 | >50 % inhibition | 
5 | CC(C)(C)C[C@@H](Nc1ncnc(N2CCCC2c2ccc(C(F)(F)F)c(F)c2)c1F)C(N)=O (stereo partly drawn) [Example 72, (2R)-2-[[5-fluoro-6-[2-[3-fluoro-4-(trifluoromethyl)phenyl]pyrrolidin-1-yl]pyrimidin-4-yl]amino]-4,4-dimethyl-pentanamide] | > 6.00 | >80 % inhibition | 
6 | Cc1ccc(COc2ncnc(N3CCCC3c3ccc(C(F)(F)F)c(F)c3)c2F)cn1 (stereo not shown) [Example 73, 5-fluoro-4-[2-[3-fluoro-4-(trifluoromethyl)phenyl]pyrrolidin-1-yl]-6-[(6-methyl-3-pyridyl)methoxy]pyrimidine] | > 5.70 | >20 % inhibition | >0 % inhibition
7 | Cc1ccc(COc2ncnc(N3CCCC3c3ccc(C(F)(F)F)cc3)c2F)cn1 (stereo not shown) [Example 74, 5-fluoro-4-[(6-methyl-3-pyridyl)methoxy]-6-[2-[4-(trifluoromethyl)phenyl]pyrrolidin-1-yl]pyrimidine] | > 5.70 | >80 % inhibition | 
8 | COc1ccc(C2CCCN2c2ncnc(NCc3ccc(C)nc3)c2F)cc1 (stereo not shown) [Example 90, 5-fluoro-6-[2-(4-methoxyphenyl)pyrrolidin-1-yl]-N-[(6-methyl-3-pyridyl)methyl]pyrimidin-4-amine] | > 6.00 | >20 % inhibition | >0 % inhibition
9 | CC1CCC(CNc2ncnc(N3CCCC3c3ccc(C(F)(F)F)cc3)c2F)CC1 (stereo not shown) [Example 93, 5-fluoro-N-[(4-methylcyclohexyl)methyl]-6-[2-[4-(trifluoromethyl)phenyl]pyrrolidin-1-yl]pyrimidin-4-amine] | > 6.30 | >50 % inhibition | >0 % inhibition
10 | CS(=O)(=O)Cc1ccc(CNc2ncnc(N3CCCC3c3ccc(C(F)(F)F)cc3)c2F)cc1 (stereo not shown) [Example 95, 5-fluoro-N-[[4-(methylsulfonylmethyl)phenyl]methyl]-6-[2-[4-(trifluoromethyl)phenyl]pyrrolidin-1-yl]pyrimidin-4-amine] | > 6.00 | >80 % inhibition | >20 % inhibition
11 | Cc1ccc(CNc2ncnc(N3CCCC3c3ccc(OC(F)(F)F)cc3)c2F)cn1 (stereo not shown) [Example 97, 5-fluoro-N-[(6-methyl-3-pyridyl)methyl]-6-[2-[4-(trifluoromethoxy)phenyl]pyrrolidin-1-yl]pyrimidin-4-amine] | > 6.00 | >80 % inhibition | >20 % inhibition
12 | CC(C)(O)Cc1ccc(CNc2ncnc(N3CCCC3c3ccc(C(F)(F)F)cc3)c2F)cc1 (stereo not shown) [Example 98, 1-[4-[[[5-fluoro-6-[2-[4-(trifluoromethyl)phenyl]pyrrolidin-1-yl]pyrimidin-4-yl]amino]methyl]phenyl]-2-methyl-propan-2-ol] | > 6.00 | >80 % inhibition | >20 % inhibition
13 | Oc1ccc(CNc2ncnc(N3CCCC3c3ccc(C(F)(F)F)cc3)c2F)cn1 (stereo not shown) [Example 100, 5-[[[5-fluoro-6-[2-[4-(trifluoromethyl)phenyl]pyrrolidin-1-yl]pyrimidin-4-yl]amino]methyl]pyridin-2-ol] | > 5.70 | >20 % inhibition | 
14 | Cn1cc(CNc2ncnc(N3CCCC3c3ccc(C(F)(F)F)cc3)c2F)cn1 (stereo not shown) [Example 106, 5-fluoro-N-[(1-methylpyrazo1-4-yl)methyl]-6-[2-[4-(trifluoromethyl)phenyl]pyrrolidin-1-yl]pyrimidin-4-amine] | > 5.00 | >20 % inhibition | 
15 | Cc1ccc(CNc2ncnc(N3CCCC3c3ccc(C(F)(F)F)cc3)c2F)o1 (stereo not shown) [Example 107, 5-fluoro-N-[(5-methyl-2-furyl)methyl]-6-[2-[4-(trifluoromethyl)phenyl]pyrrolidin-1-yl]pyrimidin-4-amine] | > 5.00 | >0 % inhibition | 
16 | CN1CC(CNc2ncnc(N3CCCC3c3ccc(C(F)(F)F)cc3)c2F)CC1=O (stereo not shown) [Example 109, 4-[[[5-fluoro-6-[2-[4-(trifluoromethyl)phenyl]pyrrolidin-1-yl]pyrimidin-4-yl]amino]methyl]-1-methyl-pyrrolidin-2-one] | > 5.70 | >20 % inhibition | 
17 | CN(C)C(=O)C1CCC(CNc2ncnc(N3CCCC3c3ccc(C(F)(F)F)cc3)c2F)O1 (stereo not shown) [Example 110, 5-[[[5-fluoro-6-[2-[4-(trifluoromethyl)phenyl]pyrrolidin-1-yl]pyrimidin-4-yl]amino]methyl]-N,N-dimethyl-tetrahydrofuran-2-carboxamide] | > 5.00 | >0 % inhibition | 
18 | COC1(CNc2ncnc(N3CCCC3c3ccc(C(F)(F)F)cc3)c2F)CCOCC1 (stereo not shown) [Example 111, 5-fluoro-N-[(4-methoxytetrahydropyran-4-yl)methyl]-6-[2-[4-(trifluoromethyl)phenyl]pyrrolidin-1-yl]pyrimidin-4-amine] | > 6.30 | >80 % inhibition | >50 % inhibition
19 | COc1cc(CNc2ncnc(N3CCCC3c3ccc(C(F)(F)F)cc3)c2F)ccn1 (stereo not shown) [Example 113, 5-fluoro-N-[(2-methoxy-4-pyridyl)methyl]-6-[2-[4-(trifluoromethyl)phenyl]pyrrolidin-1-yl]pyrimidin-4-amine] | > 6.30 | >80 % inhibition | >50 % inhibition
